{
  "source": "patent US6730679B1",
  "about": "“Pharmaceutical formulations” (SmithKline Beecham Corporation, priority 1996, dated 2004)",
  "assay": "Aqueous solubility of the compound of formula (I)",
  "assay_type": "physicochemical",
  "source_text": "Current formulations of HIV protease inhibitors for oral administration are in powder or tablet form. However, HIV protease inhibitors in these oral formulations are generally poorly soluble and, therefore, poorly bioavailable for the above reasons. […] In addition, the compound of formula (I) is poorly wetted. Therefore, formulating the compound using standard formulary techniques is difficult and leads in any event to a formulation with low bioavailability.",
  "data": [
    {"smiles": "CC(C)CN(C[C@@H](O)[C@H](Cc1ccccc1)NC(=O)O[C@H]1CCOC1)S(=O)(=O)c1ccc(N)cc1", "note": "(relative stereo) [compound of formula (I), 3S-[3R*(1R*, 2S*)]-[3-[[(4-aminophenyl)sulphonyl](2-methylpropyl)-amino]-2-hydroxy-1-phenylmethyl)propyl]carbamic acid, tetrahydro-3-furanyl ester]", "values": [
      {"measurement": "variation of aqueous solubility with pH", "setting": "FIG. 1", "result": "does not significantly vary with pH"},
      {"measurement": "solubility", "setting": "water (aqueous), room temperature", "result": 0.095, "unit": "mg/mL"}
    ]}
  ]
}
